Measured values published in publication PMC8365602 (Journal of Medicinal Chemistry, 2021).

Experiments:
monocytes = experiment: Monocyte membrane integrity (LDH release); format: cell-based, human; details: higher concentrations (>1 μM)
Protocol: To measure mitochondrial dehydrogenase activity, 3-(4,5-dimethylthiazol-2-yl)-2,5-diphenyltetrazolium bromide (MTT) (20 μL, 5 mg/mL, Sigma-Aldrich) was added to PBMC. After 4 h in the darkness, the formed formazan product was solubilized (10% SDS in 20 mM HCl) and the absorbance was read at 570 nm using a Multiskan Spectrum microplate reader (Thermo Fisher Scientific).[81]
LDH release was measured in monocytes using a CytoTox 96 nonradioactive cytotoxicity assay (Promega, Madison, WI) according to the manufacturer’s instruction using Triton X-100 (0.8%) as the maximum LDH release control.

12-LOX = target: T1, 12-LOX (Homo sapiens, UniProt P18054); experiment: 12-LOX product formation in activated PMNL; format: cell-based
T1 construct: endogenous in cells; host or cells: primary human PMNL
Protocol: Freshly isolated PMNL (5 × 10^6) suspended in PBS pH 7.4 with 1 mg/mL glucose or freshly withdrawn human whole blood were preincubated with the test compounds for 10 min (or as indicated) at 37 °C. […] The reaction was stopped with an equal volume of methanol.

[1] = Hepatic metabolism in human liver-on-chip; format: in vitro ADME; details: 1 μM, 48 h
Protocol: LCMs, 27a, and 27a metabolites were extracted from PMNL, medium of the liver-on-chip, murine plasma, peritoneal exudate, or homogenized murine tissue as described.[6] In brief, PBS pH 7.4, methanol, chloroform, and saline (final ratio: 14:34:35:17) were successively added together with 13d (9 pmol) as the internal standard. The organic layer was evaporated, and the extracted LCMs were dissolved in methanol.
LCMs, 27a, and 27a metabolites were separated at a flow rate of 0.8 mL/min and a column temperature of 45 °C, with acetonitrile/H2O (10:90) as mobile phase A and acetonitrile as mobile phase B, both acidified with 0.07% formic acid. The linear gradient from A/B = 50:50 to 0:100 within 4.5 min was followed by isocratic elution with A/B = 0:100 for 1 min. MS parameters were adjusted according to Pein et al.[6] and as detailed in Table S3. Signal intensities were normalized to the internal standard 13d, and concentrations were calculated using external calibration curves as specified in Table S3. […]
The medium between the two membranes was renewed, and the vehicle (DMSO), 12a, or 27a were added. […] 12a, 27a, and their metabolites were extracted from the combined fractions and analyzed by UPLC-MS/MS.[6]

human keratinocytes = experiment: Keratinocyte cytotoxicity (MTT) in the RHE model; format: cell-based; details: MTT assay
Protocol: Compound 27a was evaluated in an inflammatory model of RHE by Synelvia S.A.S. (Labège, France) according to the company’s protocol.[88] In brief, primary human keratinocytes were used to generate RHE on polycarbonate filters as described.[88] RHE was allowed to acclimate for 6 days (5% CO2, 37 °C) prior to incubation with 27a (5, 10, 25 μM), dexamethasone (1 μM), or vehicle (0.05% DMSO), and a proinflammatory cytokine cocktail for 4 days at 5% CO2 and 37 °C. The culture medium including compounds and cytokines was changed on days 6, 8, and 10. Each culture condition was repeated three times. Acute cytotoxicity of 27a was excluded at the concentrations studied within 24 h by measuring the mitochondrial dehydrogenase activity (MTT assay).

[2] = target: triple mutant Trp13Ala, Trp75Ala, and Trp102Ala 5-LOX (3W) (Homo sapiens, UniProt P09917, W103A/W14A/W76A); experiment: Cell-free activity of 5-LOX triple mutant (3W)
Protocol: Human recombinant 5-LOX was expressed in E. coli Bl21 (DE3) cells that were transformed with pT3–5LOX (wt 5-LOX), 5-LOX_3W (triple mutation of Trp102Ala/Trp13Ala/Trp75Ala), or 5-LOX_R (single mutant of the Arg101Asp plasmid) and purified on an ATP-agarose column (Econo-Pac, Bio-Rad, Hercules, CA) by affinity chromatography.[6],[75]
Purified 5-LOX (0.5 μg in PBS pH 7.4 containing 1 mM EDTA and 1 mM ATP) was preincubated with the vehicle (DMSO) or test compounds for 10 min and prewarmed at 37 °C.

5-LOX = target: T2, 5-LOX (Homo sapiens, UniProt P09917); experiment: Tryptophan fluorescence spectroscopy of 5-LOX; format: binding; parameters: made in house; host or cells: E. coli Bl21 (DE3); details: 5-LOX titrated with compound, 0–10 μM
T2 sequence (P09917 1-674): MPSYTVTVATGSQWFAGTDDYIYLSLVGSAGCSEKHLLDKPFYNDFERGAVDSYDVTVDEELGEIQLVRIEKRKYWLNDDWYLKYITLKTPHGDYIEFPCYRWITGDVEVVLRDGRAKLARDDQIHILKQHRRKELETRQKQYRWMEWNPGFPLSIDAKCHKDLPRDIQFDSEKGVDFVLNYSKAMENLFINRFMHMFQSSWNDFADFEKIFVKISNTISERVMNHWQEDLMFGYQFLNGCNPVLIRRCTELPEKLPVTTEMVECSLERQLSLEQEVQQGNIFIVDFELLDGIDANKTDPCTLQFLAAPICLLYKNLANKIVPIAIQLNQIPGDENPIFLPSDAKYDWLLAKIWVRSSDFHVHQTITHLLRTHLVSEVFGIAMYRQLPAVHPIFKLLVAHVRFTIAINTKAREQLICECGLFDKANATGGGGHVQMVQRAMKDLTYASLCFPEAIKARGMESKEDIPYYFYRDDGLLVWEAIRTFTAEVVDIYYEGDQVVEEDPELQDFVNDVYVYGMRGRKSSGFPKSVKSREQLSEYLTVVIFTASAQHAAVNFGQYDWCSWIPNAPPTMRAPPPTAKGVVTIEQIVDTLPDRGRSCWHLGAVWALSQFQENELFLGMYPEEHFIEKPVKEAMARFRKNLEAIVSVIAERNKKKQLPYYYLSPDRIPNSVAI
Protocol: Fluorescence spectroscopy measurements on human recombinant 5-LOX (Abcam, Cambridge, U.K.) were conducted in PBS pH 7.4 at 25 °C using an Edinburgh Instruments FLS920 Series fluorescence spectrophotometer (Livingston, U.K.). […] The concentration range of 5-LOX used through the experiments was 0.3–0.6 μM. 5-LOX was titrated with a stock solution of the test compounds in dimethylformamide to yield an experimental compound concentration in the range of 0–10 μM. The final dimethylformamide concentration was kept under 5%. After each addition, the sample was incubated for 10 min before measurement. The fluorescence emission intensity values were corrected for dilution and background noise. All conditions were measured independently and in duplicate.
The fluorescence spectral shifts were analyzed by monitoring the alterations in the spectral center of mass by estimating the intensity-averaged emission wavelength (⟨λ⟩), as calculated from the following equation, where Fi is the fluorescence emission intensity at wavenumber νi, and the summation was performed over the range of measured F values [drawing 1] 1

Chain of triple mutant Trp13Ala, Trp75Ala, and Trp102Ala 5-LOX (3W) (P09917 whole entry W14A/W76A/W103A): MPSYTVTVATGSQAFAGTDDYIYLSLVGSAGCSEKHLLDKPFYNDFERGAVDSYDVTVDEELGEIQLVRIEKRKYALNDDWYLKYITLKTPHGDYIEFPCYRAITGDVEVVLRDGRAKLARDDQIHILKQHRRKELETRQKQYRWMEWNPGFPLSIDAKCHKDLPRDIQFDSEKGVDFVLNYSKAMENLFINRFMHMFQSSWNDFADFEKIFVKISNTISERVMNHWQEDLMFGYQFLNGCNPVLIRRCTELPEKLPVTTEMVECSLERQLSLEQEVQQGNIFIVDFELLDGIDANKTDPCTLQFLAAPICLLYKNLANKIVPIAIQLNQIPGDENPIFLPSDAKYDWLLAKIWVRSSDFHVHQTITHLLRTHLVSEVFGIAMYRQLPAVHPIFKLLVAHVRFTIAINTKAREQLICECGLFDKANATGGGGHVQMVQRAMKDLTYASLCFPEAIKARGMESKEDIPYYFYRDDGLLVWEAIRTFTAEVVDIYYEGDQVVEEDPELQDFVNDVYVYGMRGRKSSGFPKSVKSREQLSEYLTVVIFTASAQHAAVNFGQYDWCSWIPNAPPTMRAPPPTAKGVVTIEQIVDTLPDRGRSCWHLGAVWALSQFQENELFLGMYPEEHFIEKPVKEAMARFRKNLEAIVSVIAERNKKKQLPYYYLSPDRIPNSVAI
T1 sequence (P18054 whole entry): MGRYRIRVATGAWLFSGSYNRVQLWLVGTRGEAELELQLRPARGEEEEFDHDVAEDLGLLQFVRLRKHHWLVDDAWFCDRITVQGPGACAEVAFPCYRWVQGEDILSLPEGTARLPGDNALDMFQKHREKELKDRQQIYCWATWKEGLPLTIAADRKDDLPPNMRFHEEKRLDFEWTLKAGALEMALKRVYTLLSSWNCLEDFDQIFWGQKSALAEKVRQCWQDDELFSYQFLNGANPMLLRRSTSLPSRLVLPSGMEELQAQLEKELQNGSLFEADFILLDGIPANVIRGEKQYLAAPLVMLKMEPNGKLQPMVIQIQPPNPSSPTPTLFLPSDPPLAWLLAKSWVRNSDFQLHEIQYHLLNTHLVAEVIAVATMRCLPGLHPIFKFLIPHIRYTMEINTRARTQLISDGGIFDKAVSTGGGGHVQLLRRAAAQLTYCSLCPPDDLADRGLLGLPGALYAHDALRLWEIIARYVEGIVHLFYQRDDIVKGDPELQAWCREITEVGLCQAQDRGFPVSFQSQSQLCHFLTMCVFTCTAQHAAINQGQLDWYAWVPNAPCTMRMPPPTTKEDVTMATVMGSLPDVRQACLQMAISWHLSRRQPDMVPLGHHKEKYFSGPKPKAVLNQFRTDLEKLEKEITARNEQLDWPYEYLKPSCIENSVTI

C/C(=C\CC/C(C)=C/CC[C@]1(C)CCc2c(C)c(O)c(C)c(C)c2O1)CCC=C(CO)CO [Compound 27a, α-amplexichromanol]
LDH release from monocytes at higher concentrations (monocytes): induced a rapid release of lactate dehydrogenase | 12-LOX inhibition (12-LOX): not substantially inhibited | Hepatic metabolism [1]: preferentially conjugated with sulfate or oxidized at 12a′ or 13′ to the respective ω-carboxylic acid | Cytotoxic effects on human keratinocytes (human keratinocytes): excluded | Effect of Trp102Ala/Trp13Ala/Trp75Ala triple mutation on 5-LOX inhibition [2]: failed to affect 5-LOX inhibition | Shift of spectral center of mass of intrinsic Trp fluorescence of 5-LOX (5-LOX): less pronounced
